# According to ChEMBL document CHEMBL1201862, “PubChem BioAssay data set” (2004):
# Active and inactive are the calls of the source.
# Experiments:
# [1] = target: Sphingosine 1-phosphate receptor 2 (Homo sapiens, UniProt O95136); test: Dose Response Cell Based Assay for Agonists of the S1P2 Receptor. [Related pubchem assays: 729, 736, 843 ]; type: functional
# [2] = YAP1 overexpression rescue of CTGF inhibition – DLD1 cells, RT-qPCR, cherry-pick, mechanism study for YAP1 pathway inhibitor project, dose response (AID 1053127); type: functional, cell-based; details: DLD-1
# [3] = target: Neuropeptides B/W receptor type 1 (Homo sapiens, UniProt P48145); test: Fluorescence-based dose response cell-based high throughput screening assay to identify antagonists of the G-protein coupled receptor 7 (GPR7). [Related pubchem assays: 1952 (Screening assay (GPR7 antagonists).), 1880 (Summary AID.)]; type: functional
# Chain of Neuropeptides B/W receptor type 1 (P48145 whole entry): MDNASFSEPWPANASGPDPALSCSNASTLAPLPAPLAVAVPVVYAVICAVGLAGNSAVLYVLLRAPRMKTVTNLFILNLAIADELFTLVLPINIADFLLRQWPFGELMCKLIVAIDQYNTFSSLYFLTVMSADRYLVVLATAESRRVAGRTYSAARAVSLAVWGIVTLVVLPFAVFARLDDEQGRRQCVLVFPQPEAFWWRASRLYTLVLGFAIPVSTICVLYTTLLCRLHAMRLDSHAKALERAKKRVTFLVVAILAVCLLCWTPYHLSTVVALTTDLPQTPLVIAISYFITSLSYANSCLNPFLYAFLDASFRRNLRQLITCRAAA
# [4] = target: Melanin-concentrating hormone receptor 1 (Homo sapiens, UniProt Q99705); test: Fluorescence-based counterscreen for antagonists of the G-protein coupled receptor 7 (GPR7): cell-based high throughput dose response assay to identify antagonists of the melanin-concentrating hormone receptor 1 (MCHR1).; type: functional
# Chain of Melanin-concentrating hormone receptor 1 (Q99705 whole entry): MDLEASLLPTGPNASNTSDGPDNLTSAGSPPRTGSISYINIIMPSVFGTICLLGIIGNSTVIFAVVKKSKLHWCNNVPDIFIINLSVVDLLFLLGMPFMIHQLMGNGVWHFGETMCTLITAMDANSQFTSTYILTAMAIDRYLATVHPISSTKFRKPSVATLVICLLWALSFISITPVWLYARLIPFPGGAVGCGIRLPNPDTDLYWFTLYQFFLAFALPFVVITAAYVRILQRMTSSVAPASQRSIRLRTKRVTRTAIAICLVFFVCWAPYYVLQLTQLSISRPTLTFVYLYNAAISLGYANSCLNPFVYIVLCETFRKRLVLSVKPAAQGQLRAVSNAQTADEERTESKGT
# [5] = test system: BJ; test: BJ-TERT fibroblast viability loss – cell-based, RAS-independent, luminescence, dose response (AID 1933); type: functional; details: Homo sapiens
# [6] = test system: BJ; test: cells; type: functional, cell-based; details: Homo sapiens
# [7] = target: Heat shock protein HSP 90-alpha (Homo sapiens, UniProt P07900); test: Luminescence-based dose response biochemical high throughput screening assay for inhibitors of the Heat Shock Protein 90 (HSP90). [Related pubchem assays: 1831 (Summary AID.), 1846 (Confirmation screen.), 1789 (Primary screen.)]
# [8] = test system: BJ; test: BJ-TERT-LT-ST fibroblast viability loss – cell-based, RAS-independent, luminescence, dose response (AID 1935); type: functional; details: Homo sapiens;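 note: BJ fibroblasts immortalized with TERT plus LT and ST oncogenes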
# [9] = DRD fibroblast viability loss – cell-based, non-viral oncogenic, luminescence, dose response (AID 1934); type: functional; details: Homo sapiens
# [10] = test system: BJ; test: growth inhibition of engineered Ras-driven BJ cells – cell-based, alamar blue fluorescence, cherrypicked samples, dose response (AID 2631); type: functional; details: Homo sapiens;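 note: confirmatory dose-response assay in RAS-dependent BJ fibroblasts engineered with TERT, LT and ST, with cytotoxicity read by fluorescence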
# [11] = cells; type: functional, cell-based
# [12] = Trypanosoma cruzi growth suppression in host cells – NIH3T3 host cells, beta-gal luminescence, confirmation (AID 2044); type: functional, cell-based;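 note: intracellular parasites grown in NIH/3T3 mouse fibroblasts as host cells; luminescent beta-galactosidase reporter signal from transgenic T. cruzi replicating inside host cells; inhibitors lower the luminescence signal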
# [13] = cells; type: functional, cell-based; remark: listed apart in the source
# [14] = NIH3T3 cell viability loss – ATP luminescence, mouse fibroblasts, counter-screen, dose response (AID 2010); type: functional, cell-based;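 note: cells exposed to compound for about 90 hours before reading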
# [15] = ATP-based viability loss in HEK293T cells – cell-based, CellTiter-Glo luminescence, dry powder, set 2, cytotoxicity control, dose response (AID 720595); type: functional; details: HEK293
# [16] = ATP-based viability loss in HeLa cells – cell-based, CellTiter-Glo luminescence, dry powder, set 2, cytotoxicity control, dose response (AID 720593); type: functional
# [17] = viability loss in HepG2 hepatoma cells – cell-based, ATP luminescence, cherry-pick, activator set 2, cytotoxicity control, dose response (AID 1053143); type: functional
# [18] = target: ELAV-like protein 1 (Homo sapiens, UniProt Q15717); test: Identify HuR specific inhibitors.; type: functional
# Chain of ELAV-like protein 1 (Q15717 whole entry): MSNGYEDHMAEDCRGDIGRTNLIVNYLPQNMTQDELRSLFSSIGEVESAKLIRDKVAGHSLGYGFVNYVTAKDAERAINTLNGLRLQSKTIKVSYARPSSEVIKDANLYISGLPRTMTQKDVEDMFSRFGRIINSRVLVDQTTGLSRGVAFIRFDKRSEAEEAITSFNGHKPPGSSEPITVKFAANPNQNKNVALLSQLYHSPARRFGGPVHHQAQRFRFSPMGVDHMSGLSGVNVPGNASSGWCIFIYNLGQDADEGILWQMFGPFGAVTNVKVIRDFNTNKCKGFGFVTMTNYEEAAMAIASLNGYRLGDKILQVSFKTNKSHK
# [19] = target: Bifunctional protein GlmU (Mycobacterium tuberculosis, UniProt P9WMN3); test: Inhibitors of Mycobacterial Glucosamine-1-phosphate acetyl transferase (GlmU). Secondary screen.; set-up: species or system Mycobacterium tuberculosis H37Rv
# Chain of Bifunctional protein GlmU (P9WMN3 whole entry): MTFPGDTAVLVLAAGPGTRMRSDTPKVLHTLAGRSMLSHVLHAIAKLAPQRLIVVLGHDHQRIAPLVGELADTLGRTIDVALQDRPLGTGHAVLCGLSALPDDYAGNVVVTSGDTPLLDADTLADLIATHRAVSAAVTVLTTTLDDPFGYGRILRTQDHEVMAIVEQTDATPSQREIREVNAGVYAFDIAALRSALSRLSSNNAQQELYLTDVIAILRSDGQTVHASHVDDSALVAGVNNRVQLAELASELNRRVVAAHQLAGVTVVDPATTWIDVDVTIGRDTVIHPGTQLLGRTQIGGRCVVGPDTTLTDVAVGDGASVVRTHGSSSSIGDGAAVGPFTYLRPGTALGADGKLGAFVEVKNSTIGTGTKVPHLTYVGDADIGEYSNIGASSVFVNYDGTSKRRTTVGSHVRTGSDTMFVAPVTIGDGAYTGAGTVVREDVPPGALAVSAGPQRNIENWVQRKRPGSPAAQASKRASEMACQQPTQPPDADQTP
# [20] = target: Induced myeloid leukemia cell differentiation protein Mcl-1 (Homo sapiens, UniProt Q07820); type: functional
# Chain of Induced myeloid leukemia cell differentiation protein Mcl-1 (Q07820 whole entry): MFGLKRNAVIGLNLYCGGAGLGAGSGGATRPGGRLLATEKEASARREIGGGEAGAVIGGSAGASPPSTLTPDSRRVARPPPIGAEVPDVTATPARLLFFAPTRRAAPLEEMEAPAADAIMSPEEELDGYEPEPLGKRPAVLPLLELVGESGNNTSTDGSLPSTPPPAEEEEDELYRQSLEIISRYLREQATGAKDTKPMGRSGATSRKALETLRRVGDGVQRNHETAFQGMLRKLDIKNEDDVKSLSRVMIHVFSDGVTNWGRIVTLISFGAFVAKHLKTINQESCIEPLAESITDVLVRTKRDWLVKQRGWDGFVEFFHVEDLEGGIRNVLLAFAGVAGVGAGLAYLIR
# [21] = growth inhibition of yeast DHODH-expressing 3D7 parasites – SYBR Green, dry powder samples, dose response (AID 1159570); type: functional, cell-based;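 note: parasite growth measured after 72 hours of compound exposure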
# [22] = P. falciparum Dd2 growth inhibitors, dose response, SYBR Green, cherry-picked samples (AID 1159567); type: functional, cell-based
# [23] = Dd2 malaria parasite growth inhibition potency – SYBR Green, dry powder samples, dose response (AID 1159566); type: functional, cell-based;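 note: potency for growth inhibition with lower SYBR green DNA signal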
# [24] = toxicity to human hepatoma HepG2 cells – cell-based, cherry-picked samples, cytotoxicity control, dose response (AID 1159577); type: functional
# [25] = Plasmodium falciparum Dd2 Sybr green parasite growth Measured in Cell-Based and Microorganism Combination System Using Plate Reader - 2153-01_Inhibitor_Dose_DryPowder_Activity_Set10.; type: functional
# [26] = growth inhibition of PfATP4-mutant resistant parasites – NITD609-resistant line, SYBR Green, dry powder, dose response (AID 1159571); type: functional, cell-based;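 note: parasites synchronized at ring stage by sorbitol before testing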
# [27] = viability loss in A549 lung cells – cell-based, 24 h, CellTiter-Glo luminescence, cherry-picks, cytotoxicity control, dose response (AID 1053115); type: functional; details: A549, 24 h
# [28] = target: Mannose-6-phosphate isomerase (Homo sapiens, UniProt P34949); test: MPI inhibition at elevated mannose 6-phosphate – biochemical, fluorescence intensity, high mannose 6-phosphate, primary screen (AID 1220)
# Chain of Mannose-6-phosphate isomerase (P34949 whole entry): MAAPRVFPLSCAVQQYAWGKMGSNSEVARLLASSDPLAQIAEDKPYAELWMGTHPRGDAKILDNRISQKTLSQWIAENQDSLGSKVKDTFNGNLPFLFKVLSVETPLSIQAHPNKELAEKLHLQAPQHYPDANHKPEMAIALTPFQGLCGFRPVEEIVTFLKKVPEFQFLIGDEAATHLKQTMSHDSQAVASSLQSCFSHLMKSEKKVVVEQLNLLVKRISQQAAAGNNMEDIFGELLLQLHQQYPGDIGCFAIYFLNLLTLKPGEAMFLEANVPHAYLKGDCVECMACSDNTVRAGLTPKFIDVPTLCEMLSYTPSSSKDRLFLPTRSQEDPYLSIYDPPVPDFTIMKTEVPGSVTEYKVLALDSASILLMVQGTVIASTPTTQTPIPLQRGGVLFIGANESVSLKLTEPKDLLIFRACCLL
# [29] = target: Nonstructural protein 1 (Influenza A virus, UniProt Q194T2); type: functional, Influenza A virus (A/California/07/2009(H1N1))
# Chain of Nonstructural protein 1 (Q194T2 whole entry): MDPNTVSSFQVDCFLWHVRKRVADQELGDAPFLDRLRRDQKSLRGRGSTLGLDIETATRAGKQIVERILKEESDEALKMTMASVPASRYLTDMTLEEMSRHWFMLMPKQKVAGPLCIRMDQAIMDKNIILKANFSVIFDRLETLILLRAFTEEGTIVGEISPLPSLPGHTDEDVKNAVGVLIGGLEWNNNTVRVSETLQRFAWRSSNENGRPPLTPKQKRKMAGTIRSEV
# Chain of Sphingosine 1-phosphate receptor 2 (O95136 whole entry): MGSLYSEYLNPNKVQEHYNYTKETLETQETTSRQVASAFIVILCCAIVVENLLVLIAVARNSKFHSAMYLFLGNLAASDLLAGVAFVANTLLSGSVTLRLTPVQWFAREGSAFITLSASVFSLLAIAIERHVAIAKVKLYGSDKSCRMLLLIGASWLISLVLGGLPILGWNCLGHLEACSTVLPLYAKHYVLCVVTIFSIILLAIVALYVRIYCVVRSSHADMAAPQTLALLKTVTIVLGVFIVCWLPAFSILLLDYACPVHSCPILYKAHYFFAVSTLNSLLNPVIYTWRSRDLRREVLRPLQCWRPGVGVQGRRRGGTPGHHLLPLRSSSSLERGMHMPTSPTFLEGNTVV
compound,measurement,setting,value
CCOC(=O)CN(C(=O)CSc1nnc(COc2ccc(OC)cc2)n1C)c1ccccc1,EC50,[1],> 50 µM (not active)
CC(C)(C)[S@@+]([O-])N1Cc2cc(C(=O)NCCc3ccncc3)nc(-c3cccc(-c4cccc(C#N)c4)c3)c2[C@H]1CCO,AC50,[2],0.498 µM (active)
CCc1ccc(Cn2nnc(C(=O)Nc3ccc(OC)cc3OC)c2N)cc1,IC50,[3],> 43.8 µM (not active)
same,IC50,[4],> 43.8 µM (not active)
CNC(=S)N/N=C/c1ccc(-c2ccc(C(=O)O)cc2)o1,EC50,[5],4.2 µM (active)
same,EC50,[6],5.08 µM (active)
same,IC50,[7],8.05 µM (active)
same,EC50,[8],17 µM (active)
same,EC50,[9],5.6 µM (active)
same,EC50,[10],> 133 µM (inactive)
CCc1cc2c(O)nc(-c3ccccn3)nc2s1,EC50,[11],> 350 µM (not active)
same,EC50,[12],1.38 µM (active)
same,EC50,[13],28.8 µM (active)
same,EC50,[14],2.45 µM (active)
same,AC50,[15],34.5 µM (active)
same,AC50,[16],24.1 µM (active)
same,AC50,[17],14.2 µM (active)
CC1=CC(C)(C)N=C(S)N1c1cccc2cc(S(=O)(=O)O)ccc12,IC50,[18],14.7 µM (inactive)
O=C(/C=C/c1ccc(O)c(O)c1)O[C@H](Cc1ccc(O)c(O)c1)C(=O)O [ROSMARINIC ACID],IC50,[19],84.9 µM (active)
same,IC50,[20],2.03 µM (active)
COc1ccc(-c2ccccc2[C@H]2[C@@H](C#N)N(C(=O)C3CCCC3)[C@@H]2CO)cc1,AC50,[21],0.69 µM (active)
same,AC50,[22],1.34 µM (active)
same,AC50,[23],0.717 µM (active)
same,AC50,[24],> 42 µM (inactive)
same,AC50,[25],0.867 µM (active)
same,AC50,[26],2.54 µM (active)
COc1ccccc1CN1CC[C@@H]2[C@@H](CO)Nc3ccc(C#Cc4ccccc4)cc3[C@@H]21,AC50,[27],> 60 µM (inactive)
COc1ccc(Nc2c([N+](=O)[O-])ccc3c2=NC2(CCCCC2)N=3)cc1,IC50,[28],> 50 µM (not active)
same,IC50,[29],11.1 µM (active)
